Laboratory results taken from patent US6608076B1, “Camptothecin derivatives and polymeric conjugates thereof” (priority 2002, dated 2003).

System: human mammary carcinoma (MX-1)
Test: Efficacy against subcutaneous human mammary carcinoma (MX-1) xenograft in nude mice
Type: in vivo
Text: General Procedures. All reactions were run under an atmosphere of dry nitrogen or argon. Commercial reagents were used without further purification. All PEG compounds were 40 kDa and were dried under vacuum or by azeotropic distillation from toluene prior to use. ^13C NMR spectra were obtained at 75.46 MHz using a Varian Mercurye® 300 NMR spectrometer and deuterated chloroform as the solvent unless otherwise specified. Chemical shifts (δ) are reported in parts per million (ppm) downfield from tetramethylsilane (TMS). All PEG conjugated compounds were dissolved in saline for injection prior to in vivo drug treatments and were given as their camptothecin equivalents (absolute amount of camptothecin given). HPLC method. The reaction mixtures and the purity of intermediates and final products were monitored by a Beckman Coulter System Gold® HPLC instrument employing a ZOBAXO® 300 SB C-8 reversed phase column (150×4.6 mm) or a Phenomenex Jupiter® 300A C18 reversed phase column (150×4.6 mm) with a multiwavelength UV detector, using a gradient of 30-90% of acetonitrile in 0.5% trifluoroacetic acid (TFA) at a flow rate of 1 mL/min.
The efficacy of open-form camptothecin analogs against a subcutaneous human mammary carcinoma (MX-1) grown in nude mice was determined as follows. Following at least one week of acclimation, tumors were established by implanting small tumor fragments from donor mice into a single subcutaneous site, on the left axillary flank region of nude mice. The tumor implantation site was observed twice weekly and measured once palpable. The tumor volume for each mouse was determined by measuring two dimensions with calipers and calculated using the formula: tumor volume=(length×width^2). When tumors reached the average volume of approximately 75 mm^3, the mice were divided into their experimental groups, which consists of untreated controls, PEG40,000-ala-20(S)-Camptothecin, compound 8, and compound 18.
The mice were sorted to evenly distribute tumor size, grouped into 4 to 5 mice/cage, and ear punched for permanent identification. Drugs were dosed intravenously via the tail vein as a single dose (Qd1). Mouse weight and tumor sizes were measured at the beginning of study and twice weekly through week 5. The overall growth of tumors was calculated as the mean tumor volume at one week following the end of the treatment. A percent treatment over control (T/C) value was also calculated when the control group's median tumor size reached approximately 800-1100 mm^3 and again at one week following treatment. The T/C value in percent is a non-quantitative indication of anti-tumor effectiveness.

PEG40,000-ala-20(S)-Camptothecin
Difference in antitumor activity between the three compounds (at equivalent doses): no significant (P<0.05) difference in the antitumor activity
Tumor Regression at Day 25 (#/grp) (i.v. Qd1 (24 mg/kg/dose), Day 25): 5/5
T/C (%) At 1000 mm^3 (i.v. Qd1 (24 mg/kg/dose), median tumor volume treated vs control when control median reached approx. 1000 mm^3, T/C < 42% considered significant): 1.4%
Tumor volume as compared to control mice (i.v. single dose, statistical comparison, P<0.05): significantly (P<0.05) smaller tumor volumes
Tumor Volume (mean ± sem) Day 21 (intravenous single dose Qd1 (24 mg/kg/dose, camptothecin equivalents), established tumors ~75 mm^3, Day 21): 15 ± 5 mm^3
